Experimental data from publication PMC4775085 (ACS chemical neuroscience, 2015).

Experiments:
[1] = target: T1, HDAC7 (Homo sapiens, UniProt Q8WUI4); test: HDAC7 enzymatic inhibition assay
T1 sequence (Q8WUI4 1-952): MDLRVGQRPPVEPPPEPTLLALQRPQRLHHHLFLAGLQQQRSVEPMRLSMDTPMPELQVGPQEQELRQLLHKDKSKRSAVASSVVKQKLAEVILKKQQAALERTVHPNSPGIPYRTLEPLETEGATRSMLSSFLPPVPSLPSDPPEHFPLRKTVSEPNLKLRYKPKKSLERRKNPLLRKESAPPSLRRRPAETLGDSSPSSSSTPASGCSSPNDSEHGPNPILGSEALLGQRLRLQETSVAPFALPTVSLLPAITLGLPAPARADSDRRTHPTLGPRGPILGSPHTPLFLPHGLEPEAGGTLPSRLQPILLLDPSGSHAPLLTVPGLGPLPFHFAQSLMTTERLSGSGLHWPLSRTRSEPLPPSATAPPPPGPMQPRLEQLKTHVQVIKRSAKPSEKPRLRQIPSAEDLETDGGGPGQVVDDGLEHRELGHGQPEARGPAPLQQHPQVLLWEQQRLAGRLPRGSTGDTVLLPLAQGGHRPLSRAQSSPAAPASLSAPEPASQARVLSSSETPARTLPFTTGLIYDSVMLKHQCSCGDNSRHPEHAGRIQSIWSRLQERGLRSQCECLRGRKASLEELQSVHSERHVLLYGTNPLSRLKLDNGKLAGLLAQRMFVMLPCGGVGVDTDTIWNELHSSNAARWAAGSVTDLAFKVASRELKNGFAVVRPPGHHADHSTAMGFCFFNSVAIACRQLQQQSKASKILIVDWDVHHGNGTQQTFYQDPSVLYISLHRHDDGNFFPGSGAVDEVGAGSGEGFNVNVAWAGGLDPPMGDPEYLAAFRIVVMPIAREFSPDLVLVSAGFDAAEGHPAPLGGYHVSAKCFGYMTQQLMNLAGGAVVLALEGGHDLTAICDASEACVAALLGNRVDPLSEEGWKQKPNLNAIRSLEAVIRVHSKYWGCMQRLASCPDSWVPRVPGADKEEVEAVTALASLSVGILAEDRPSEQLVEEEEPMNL

[2] = target: T2, HDAC10 (Homo sapiens, UniProt Q969S8); test: HDAC10 enzymatic inhibition assay
T2 sequence (Q969S8 1-669): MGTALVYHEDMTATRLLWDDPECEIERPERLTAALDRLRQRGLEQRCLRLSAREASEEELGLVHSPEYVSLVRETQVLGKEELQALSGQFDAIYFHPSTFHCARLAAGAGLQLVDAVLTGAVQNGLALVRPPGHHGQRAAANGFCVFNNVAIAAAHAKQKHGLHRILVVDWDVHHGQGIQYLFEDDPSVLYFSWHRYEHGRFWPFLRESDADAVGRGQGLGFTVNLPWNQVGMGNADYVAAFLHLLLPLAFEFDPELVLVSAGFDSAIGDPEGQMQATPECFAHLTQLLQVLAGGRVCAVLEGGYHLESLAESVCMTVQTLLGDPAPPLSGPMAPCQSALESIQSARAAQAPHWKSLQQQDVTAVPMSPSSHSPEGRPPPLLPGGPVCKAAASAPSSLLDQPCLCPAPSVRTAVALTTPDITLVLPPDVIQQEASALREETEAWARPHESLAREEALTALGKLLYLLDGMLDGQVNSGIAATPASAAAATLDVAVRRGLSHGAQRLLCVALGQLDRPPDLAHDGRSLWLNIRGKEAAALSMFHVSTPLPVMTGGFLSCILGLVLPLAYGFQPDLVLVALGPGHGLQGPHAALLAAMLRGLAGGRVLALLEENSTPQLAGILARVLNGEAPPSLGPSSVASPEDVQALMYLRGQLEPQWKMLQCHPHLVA

[3] = target: HDAC4 (Homo sapiens, UniProt P56524); test: HDAC4 enzymatic inhibition assay
[4] = target: T3, HDAC8 (Homo sapiens, UniProt Q9BY41); test: HDAC8 enzymatic inhibition assay
T3 sequence (Q9BY41 1-377): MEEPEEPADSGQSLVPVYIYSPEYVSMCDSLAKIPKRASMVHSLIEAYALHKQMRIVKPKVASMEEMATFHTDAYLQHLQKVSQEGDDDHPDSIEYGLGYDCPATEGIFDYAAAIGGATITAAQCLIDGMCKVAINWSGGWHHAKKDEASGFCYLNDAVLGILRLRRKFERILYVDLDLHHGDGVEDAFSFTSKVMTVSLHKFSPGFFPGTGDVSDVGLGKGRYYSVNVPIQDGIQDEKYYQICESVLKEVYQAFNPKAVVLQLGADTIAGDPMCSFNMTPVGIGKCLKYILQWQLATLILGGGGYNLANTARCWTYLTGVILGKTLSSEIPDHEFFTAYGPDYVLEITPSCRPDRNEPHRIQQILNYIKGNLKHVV

[5] = target: HDAC1 (Homo sapiens, UniProt Q13547); test: HDAC1 enzymatic inhibition assay; type: biochemical; conditions: HDAC1 IC50, singlet 10-dose IC50 mode, 3-fold serial dilution starting at 100 μM
Sequence of HDAC1 (Q13547 whole entry): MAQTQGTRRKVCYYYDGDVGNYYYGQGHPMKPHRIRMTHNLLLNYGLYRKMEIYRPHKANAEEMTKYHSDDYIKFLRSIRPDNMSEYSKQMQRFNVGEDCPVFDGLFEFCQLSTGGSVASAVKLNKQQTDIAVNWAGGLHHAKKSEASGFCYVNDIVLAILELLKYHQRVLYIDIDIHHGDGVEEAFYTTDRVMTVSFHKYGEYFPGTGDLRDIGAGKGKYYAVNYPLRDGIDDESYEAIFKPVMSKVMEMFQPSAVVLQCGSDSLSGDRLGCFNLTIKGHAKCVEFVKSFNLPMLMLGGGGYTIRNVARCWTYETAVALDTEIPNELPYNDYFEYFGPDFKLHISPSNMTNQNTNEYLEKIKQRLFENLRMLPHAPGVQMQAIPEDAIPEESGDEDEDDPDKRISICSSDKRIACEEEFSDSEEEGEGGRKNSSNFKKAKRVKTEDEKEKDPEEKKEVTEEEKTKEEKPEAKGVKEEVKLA

Sequence of HDAC4 (P56524 whole entry): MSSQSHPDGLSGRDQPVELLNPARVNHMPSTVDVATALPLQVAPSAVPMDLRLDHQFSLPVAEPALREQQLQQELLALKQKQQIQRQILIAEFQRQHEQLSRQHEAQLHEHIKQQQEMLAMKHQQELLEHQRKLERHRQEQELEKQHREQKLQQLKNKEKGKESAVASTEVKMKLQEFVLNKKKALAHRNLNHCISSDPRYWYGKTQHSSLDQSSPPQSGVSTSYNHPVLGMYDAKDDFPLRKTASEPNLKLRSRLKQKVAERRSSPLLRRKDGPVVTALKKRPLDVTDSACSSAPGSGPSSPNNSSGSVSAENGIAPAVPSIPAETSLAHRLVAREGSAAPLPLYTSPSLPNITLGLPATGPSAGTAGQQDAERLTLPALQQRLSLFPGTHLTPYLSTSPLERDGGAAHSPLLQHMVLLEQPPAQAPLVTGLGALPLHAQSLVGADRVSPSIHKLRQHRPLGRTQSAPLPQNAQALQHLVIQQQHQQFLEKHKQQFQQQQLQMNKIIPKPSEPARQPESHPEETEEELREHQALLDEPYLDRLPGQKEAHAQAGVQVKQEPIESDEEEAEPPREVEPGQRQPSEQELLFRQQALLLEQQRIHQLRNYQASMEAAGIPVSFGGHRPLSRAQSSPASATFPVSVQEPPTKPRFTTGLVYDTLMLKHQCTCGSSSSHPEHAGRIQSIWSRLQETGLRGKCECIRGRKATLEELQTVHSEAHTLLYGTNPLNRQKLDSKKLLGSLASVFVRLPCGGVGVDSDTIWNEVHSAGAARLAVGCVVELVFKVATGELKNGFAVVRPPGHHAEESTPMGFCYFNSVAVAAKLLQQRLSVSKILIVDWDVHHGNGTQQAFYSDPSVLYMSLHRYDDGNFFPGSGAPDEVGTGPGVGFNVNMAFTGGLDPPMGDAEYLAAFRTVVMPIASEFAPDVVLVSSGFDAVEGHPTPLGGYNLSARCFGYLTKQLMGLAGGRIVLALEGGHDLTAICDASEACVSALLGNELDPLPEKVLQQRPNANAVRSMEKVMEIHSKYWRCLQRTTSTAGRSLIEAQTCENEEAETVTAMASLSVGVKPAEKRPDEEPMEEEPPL

IC50 [1]: 211 nM
IC50 [2]: 11800 nM
IC50 [3]: 1460 nM
IC50 [4]: 368 nM
IC50 [5]: 4360 nM
SMILES: Cc1nc2ccc(F)cc2n1Cc1ccc(C(=O)NO)cc1 [30a, 4-[(6-Fluoro-2-methyl-1-benzimidazolyl)methyl]-N-hydroxybenzamide]
